Earlier results in article PMC10425210 (The Journal of Clinical Investigation, 2023).

Experiments:
HIV-1 = tested on: HIV-1; set-up: method as in ref 11, 12 = [11]; PMID 32612233; doi:10.1038/s41586-020-2443-1; 11 Link JO et al Clinical targeting of HIV capsid protein with a long-acting small molecule Nature 2020 584 7822 614 618 10.1038/s41586-020-2443-1 32612233 PMC8188729 || [12]; 12 Yant SR, et al. GS-6207, A potent and selective first-in-class long-acting HIV-1 capsid inhibitor. Conference on Retroviruses and Opportunistic Infections. https://www.croiconference.org/abstract/g; details: HIV-1 in MT-4 cells; cited from earlier work
[1] = cited from earlier work
[2] = 927 mg sc twice-yearly after 600 mg oral on days 1 and 2

CC(C)(C#Cc1ccc(-c2ccc(Cl)c3c(NS(C)(=O)=O)nn(CC(F)(F)F)c23)c([C@H](Cc2cc(F)cc(F)c2)NC(=O)Cn2nc(C(F)(F)F)c3c2C(F)(F)[C@@H]2C[C@H]32)n1)S(C)(=O)=O [LEN, Lenacapavir]
EC50 (HIV-1): 0.1 nM
time to reach efficacious target concentration after injection ([1]; 927 mg sc after oral lead-in): ≤ 2 h
efficacious target plasma concentration [1, 2]: 15.5 ng/mL
efficacious target plasma concentration (human target Ctrough) [1, 2]: 16 nM
